These results are taken from patent US20240228491A1, “METHIONINE ADENOSYLTRANSFERASE INHIBITOR, PREPARATION METHOD THEREFOR AND APPLICATION THEREOF” (SCINNOHUB PHARMACEUTICAL CO., LTD., priority 2021, published 2024).

One may read the IC50 as the concentration needed to halve the response being measured. One may read the AUC(0-t) as exposure summed from dosing to a finite time, without extrapolation to infinity.

Where two headings read alike, the source gives them in different places.

In data set [1] the test system is DOHH-2 cells. Description: Inhibitory activity test of DOHH-2 cells. The format is cell-based. To be noted: Homo sapiens, 120 h incubation, CellTiter-Glo, read-out: DOHH-2 cell inhibitory activity IC50. On the procedure:
On day 1, cell seeding: cells were resuspended to the desired density with DMEM complete medium (Gibico, Cat. No. 10569010) supplemented with 10% FBS (Gibco, 10099141C), mixed evenly, and added into the 384-well plate at 30 μL/well with a cell density of 800/well. The compounds to be tested were added as follows: 30 nL of DMSO solution containing the compound (the concentration of the compound in which was formulated as: 3-fold gradient dilution from 10 mM, 10 concentration points in total) was added, incubated for 120 h at 37° C., 5% CO2. On day 6, the cells treated with compounds were removed and equilibrated to room temperature, 30 μL of CellTiter-Glo (Promega company, Cat. No. G7573) reagent was added per well, and the cells were fully lysed by shaking at room temperature, and then incubated in dark at 37° C., 5% CO2 for 30 min, to detect the fluorescence intensity.
% Inhibition=100−(signal of the well with the compound to be tested−signal of the well with only medium and free of cells)/(signal of the well with cells but without the addition of the compound−signal of the well with only medium and free of cells)×100.
The log value of concentration was used as the X-axis and % Inhibition was used as the Y-axis, so as to fit the dose-effect curve and calculate the IC50 value using nonlinear regression (dose response−variable slope) in the analysis software GraphPad Prism 8.
Background: In ATP-based viability assays light output follows the ATP content of the culture.

Data set [2] is described as follows: In vivo pharmacokinetic study in ICR mice. To be noted: plasma; for AUC(0-t): read-out: Area under curve AUC(0-t); for Cmax: read-out: Maximal concentration Cmax. On the procedure: Species: ICR mice, SPF grade. Source: Shanghai Xipuer-Bikai Laboratory Animal Co., Ltd. Number: 3 mice per dosage form.
2.1 An appropriate amount of the test sample was accurately weighed, into which 5% DMSO, 10% polyethylene glycol-15 hydroxystearate, 85% normal saline (all in volume percent) were added sequentially, and were fully mixed via vortex or ultrasound, to obtain the dosing solution with a test sample concentration of 0.4 mg/mL for intravenous administration.
2.2 An appropriate amount of the test sample was accurately weighed, into which 5% DMSO, 10% polyethylene glycol-15 hydroxystearate, 85% normal saline (all in volume percent) were added sequentially, and were fully mixed via vortex or ultrasound, to obtain the dosing solution with a test sample concentration of 1 mg/mL for oral gavage administration.
Weighing was performed before administration, and the administration amount was calculated according to the body weight. The drug was administered orally by gavage or intravenously.
Before and 0.083 h, 0.25 h, 0.5 h, 1 h, 2 h, 4 h, 6 h, 8 h, 24 h after administration.
Blood was collected via submandibular vein or other suitable means, and approximately 0.03 mL per sample was collected via anticoagulation with heparin sodium. Blood samples were placed on ice after collection and centrifuged to separate plasma within 1 h (centrifugation conditions: centrifugal force of 6800 g, 6 min, 2-8° C.). The collected plasma samples were stored in a −80° C. refrigerator before analysis, and the remaining plasma samples continued to be stored in a −80° C. refrigerator for temporary storage after analysis.
When plot the plasma concentration-time curve according to the detected plasma concentration of the test substance, BLQ (Beneath Limit of Quantification) was recorded as 0. When calculating pharmacokinetic parameters, the concentration before administration was calculated as 0; BLQ (including “No peak”) before Cmax was calculated as 0; BLQ (including “No peak”) after Cmax was not involved in the calculation. Pharmacokinetic parameters, such as AUC(0-t), T1/2, Cmax, etc., were calculated by WinNonlin using the plasma concentration data at different time points.

Regarding `Nc1c(-c2ccc3nccnc3c2)c(=O)n(-c2ccc(Cl)cc2)c2nc(C(F)(F)F)ccc12` [Example 36], the IC50 in data set [1] amounted to 7 nM. In data set [2] (IV 2 mg/kg), the “Apparent clearance rate Cl” value was 1.03 mL/min/kg. Moreover, the AUC(0-t) in data set [2] (mouse, IV 2 mg/kg) was 31.7 µg·h/mL; in data set [2] (mouse, PO 10 mg/kg) it was 211 µg·h/mL. For the same compound, the half-life in data set [2] (mouse, IV 2 mg/kg, read-out: Half life T1/2 (converted)) is 5.53 h; in data set [2] (mouse, PO 10 mg/kg, read-out: Half life t1/2 (converted)) it was 9.32 h. Also, the Cmax in data set [2] (mouse, IV 2 mg/kg) was 3540 ng/mL; in data set [2] (mouse, PO 10 mg/kg), 18100 ng/mL. The bioavailability in data set [2] (mouse, PO 10 mg/kg vs IV 2 mg/kg, read-out: Bioavailability F %) was determined as 133%.
